Data reported in patent US5393779A, “Chemical compounds” (Zeneca Limited, priority 1991, dated 1995).

Key:
[1] = tested on: brown adipose tissue (BAT) mitochondria; experiment: Test (a): GDP binding in BAT mitochondria of cold-adapted rats as a measure of thermogenic activation; format: in vivo; settings: BAT removed one hour after dosing; for ED50: Rattus norvegicus, 1 h, oral, relative to isoprenaline 1 mgkg^-1, read-out: oral ED50 (dose producing 50% of the isoprenaline effect on GDP binding)
Method: (a) Rats are cold adapted at 4° C. for 5 days to increase their capacity for thermogenesis. They are then transferred to a warm environment of 25° C. for 2 days. On the following day, a test compound is administered sub-cutaneously or orally. Animals are sacrificed one hour later and the interscapular, brown adipose tissue (BAT) pad is removed. BAT mitochondria are prepared by differential centrifugation and GDP binding is determined (Holloway et al., International Journal of Obesity, 1984, 8, 295) as a measure of thermogenic activation. Each test includes a control which is dosed with the solution/suspension vehicle only and a positive control which is dosed with isoprenaline (as its sulphate) at 1 mgkg^-1. Test compounds are routinely dosed at 0.1, 0.3, 1.0, 3.0, and 10 […] and results expressed in terms of the effect on GDP binding produced by the positive control. […] Compounds are considered active in this test if they cause a significant elevation in GDP binding as compared to controls.

rat adipocytes = experiment: Rat adipocyte lipolysis test; format: cell-based, rats; settings: 1.5 h, rat epididymal adipocytes, 90 minutes, free fatty acids, isoprenaline 3×10^-6 M, read-out: Efficacy (maximal effect on lipolysis as a percentage of the maximal effect of isoprenaline)
Method: Epididymal adipose tissue was excised from male rats and adipocytes prepared by digestion with collagenase. Cells were isolated by flotation and washed four times with Krebs Ringer Bicarbonate buffer (KRB), finally washing in KRB containing 2% bovine serum albumin (KRB/BSA). Aliquots of the cell suspension were incubated in the presence of a range of concentrations of the test compound in a total volume of 1 ml KRB/2% BSA containing 0.1 mg/ml ascorbate in an atmosphere of 95%O2,5%CO2. Incubations were also carried out in the presence of a concentration of isoprenaline (3×10^-6 M) known to have a maximal effect on lipolysis. Control incubations were carried out in KRB/2% BSA containing ascorbate. The incubations were terminated after 90 minutes by placing the tubes on ice, and aliquots of infranatant removed for assay of free fatty acids which were measured using a WAKO NEFA-C assay kit (Alpha Laboratories). Lipolytic activity of the compounds was assessed by determining the increase in free fatty acid concentrations caused by the compounds compared to controls. The maximal effects (efficacy) of the compounds were determined and expressed as percentage of the maximal effect of isoprenaline.
Efficacy is the maximal effect of the test compound on lipolysis expressed as a percentage of the maximal effect of isoprenaline.

Rats [2] = experiment: Test (b): heart rate in rats, D500 dose and selectivity index (SI); format: in vivo
Method: (b) Rats are adapted to a thermoneutral environment (29° C.) for 2 weeks in order to decrease their capacity for BAT mediated non-shivering thermogenesis. During the final 5 days the animals are trained to use an apparatus for measuring heart rate non-invasively via foot-pad electrodes connected to an ECG integrator giving a continuous read-out of heart rate. A test compound is administered sub-cutaneously or orally at the ED50 determined in test (a), and heart rate is determined 15-30 minutes after dosing. The procedure is then repeated in subsequent tests using increasing multiples of the ED50 determined in test (a) until the heart rate (HR) reaches or exceeds 500 beats per minute, or until the dose reaches 100 times the ED50 determined in test (a). The dose necessary to produce a heart rate of 500 beats per minute (D500 dose) is estimated.
The ratio of D500 to ED50 in test (a) can be defined as the selectivity index (SI) and provides a measure of the selectivity of the compound for BAT as opposed to the cardiovascular system.

Rats [3] = experiment: Test (c): metabolic rate by closed-circuit oxygen consumption in rats; format: in vivo; settings: 1mgkg^-1 p.o.
Method: (c) Rats are kept at 23° C. for at least two days, then fasted overnight. On the following day, the basal metabolic rate of the animals is determined using a close-circuit oxygen consumption apparatus of the type described by Arundel et al., 1984, J. Appl. Physiol. Respirat. Environ. Exercise Physiol., 1984, 57 (5) 1591-1593. The rats are then dosed (orally) with test compound at about 1 mgkg^-1 as a solution or suspension in 0,025% w/v Polysorbate 80 (0.5 ml/100 g). Metabolic rate is then determined for at least one hour after dosing. Compounds are considered active in this test if they cause a significant increase in metabolic rate as compared to control animals (Student's t test: p <0.05) dosed only the solution or suspension vehicle.

Male rats = experiment: Oral glucose tolerance test; format: in vivo; settings: for Plasma glucose: 5 mg/Kg p.o., mean±S.E.M., six rats
Method: Male rats (125-150 g) were fasted for 24 hours. After fasting, a group of six rats was anaesthetised and a cardiac blood sample taken. Other groups of rats were then dosed with the compound of Example 1 (5.0 mg/Kg p.o.) dissolved in an aqueous solution of 0.025% polysorbate. Control rats were dosed with polysorbate solution alone. The volume of solution dosed was 0.5 ml/100 g body weight. 60 minutes subsequent to dosing six control and six treated rats were anaesthetised and cardiac samples taken. The remaining rats were given an oral glucose load (1 g/Kg) dosed as a 20% solution of D-glucose (0.5 ml/100 g). Groups of six rats for each control and treatment were then anaesthetised and bled at 20, 60 and 120 minutes after the glucose load. Plasma glucose and insulin were determined using standard methods.
The results are mean±S.E.M. of observations in six rats in each group. Student's t test was used to test the significance of the difference between control and treated groups.

C57BL/KsJ (db/db) mice = experiment: Effects on blood glucose levels in insulin resistant db/db mice; format: in vivo; settings: 50 mg/kg diet
Method: Effects on blood glucose levels in insulin resistant db/db mice C57BL/KsJ (db/db) mice were divided into two groups and allowed free access to control diet or diet containing the compound of Example 1 at a concentration of 50 mg/kg diet. A group of control (+/+) mice was also included in the experiment. After 16 days treatment, blood samples were taken from the mice for determination of blood glucose levels.
Results are mean±S.E.M. of observations in groups of 15 mice. Student's t test was used to test the significance of the difference between control (+/+) and treated (db/db) groups.

SMILES: O=C(O)COc1ccc(OCCNCC(O)c2ccccc2)cc1 (stereo not drawn) [4-[2-(2-Hydroxy-2-phenylethylamino)-ethoxy]phenyloxyacetic acid, reference compound]
- ED50 [1]: > 3 mg/kg

SMILES: O=C(O)COc1ccc(OCCNCC(O)COc2ccccc2)cc1 (stereo not drawn) [4-[2-(2-Hydroxy-3-phenoxypropylamino)-ethoxy]phenoxyacetic acid, reference compound]
- Emax (rat adipocytes): 26%

SMILES: CC(C)NCC(O)c1ccc(O)c(O)c1 (stereo not drawn) [isoprenaline, reference compound]
- SI (selectivity index, ratio of D500 to ED50 in test (a)) (Rats [2]; route not stated): 0.06

SMILES: O=C(O)Cc1ccc(OCCNC[C@H](O)c2ccccc2)cc1 [Example 1, (R)-4-[2-(2-Hydroxy-2-phenylethylamino)ethoxy]phenylacetic acid]
- oral ED50 (dose producing 50% of the isoprenaline effect on GDP binding) ([1]; relative to isoprenaline 1 mgkg^-1): 0.55 mgkg^-1
- ED50 [1]: 0.55 mg/kg
- SI (selectivity index, ratio of D500 to ED50 in test (a)) (Rats [2]; oral): > 50
- metabolic rate (oxygen consumption) (Rats [3]): 6.53 ml O2 min^-l (Kg^O.75)
- Plasma glucose (Male rats; 0 mins relative to oral glucose load): 3.52 ± 0.07 mM
- Plasma glucose (Male rats; 20 mins after oral glucose load (1 g/Kg)): 5.72 ± 0.24 mM
- Plasma glucose (Male rats; 60 mins after oral glucose load (1 g/Kg)): 5.32 ± 0.24 mM
- Plasma glucose (Male rats; 120 mins after oral glucose load (1 g/Kg)): 5.43 ± 0.31 mM
- antihyperglycaemic activity (in words) (Male rats; 5.0 mg/Kg p.o., rats): marked antihyperglycaemic activity
- effect on blood glucose levels (in words) (C57BL/KsJ (db/db) mice; 16 days): normalises blood glucose levels
- Blood glucose (C57BL/KsJ (db/db) mice; after 16 days treatment, mean±S.E.M., 15 mice): 5.3 ± 0.46 mM
- Emax (rat adipocytes): 100%
